Data on 6 molecules can be found in patent US5622942A, “Percutaneous absorptive anesthetic” (priority 1993, dated 1997).

Data set [1] in a line: Lidocaine blood concentration after application of ointment to the rat abdomen (fluorescence polarization immunoassay). The class given is in vivo, Wistar rat. From the text: (1) Experimental Animal Wistar rat a. Aqueous gel ointment containing 2% of lidocaine. b. Aqueous gel ointment containing 10% of lidocaine. c. Aqueous gel ointment in (b) containing 3% of compound 4. e. Aqueous gel ointment in (a) containing 3% of compound 4. […] Group with an ointment a applied. Group with an ointment e applied. […] Group with an ointment c applied. Group with 3% Azone (Trademark registered)--10% lidocaine aqueous gel-ointment applied. […] In these groups, the rats had their body portion covered with a polyethylene food wrapping sheet at an area where an ointment was applied, and sealed by means of transparent tape. Then, a blood was withdrawn through a cannula which had been inserted into the carotid. The blood was pretreated with a heparin and separated by means of centrifugal separator to obtain blood plasma. A fluorescence polarization immunoassay was used to determine the concentration of the lidocaine in the blood.

In data set [2] the test system is skin. Description: Preparatory pinprick test of skin anesthesia effect, 3% absorption promoter and 2% lidocaine aqueous gel-ointment. The format is in vivo, healthy adult (human). The conditions noted are these: for time at which effect of the skin anesthesia began / time of complete skin anesthesia: after application, 3% promoter + 2% lidocaine; for skin anesthesia effect, in words: pinprick, up to 4 hours after application. As for the experimental part:
Same as that in the experimental example 1.
A preparatory experiment was carried out to verify the skin anesthesia effect of various lidocaine aqueous gel-ointments when they are applied in the quantity of 0.3 g/4 cm^2.
Pinprick test was carried out to compare results utilizing lidocaine aqueous gel-ointment which was prepared by mixing the ointments d-h, Xylocaine Jelly (Trademark registered, containing 2% lidocaine, made by Fujisawa Pharmaceutical Co., Ltd.), Azone, a known percutaneous absorption promoter, sodium caprate (to be indicated as Cap Na hereinafter) and isopropyl myristate (to be indicated as IPM hereinafter).
The skin over which various ointments were applied was pierced several times using a 26 gauge intradermal needle at the time of 1, 1.5, 2, 3 and 4 hours after the application, and the degree of pain felt by the adult was evaluated according to a criterion given below.
++ No pain felt at the area where the ointment was applied.
+ Pain felt at some portions.
- Pain felt at that area.

The nature of data set [3]: Acute toxic examination (LD50), oral, rat. The conditions noted are these: in vivo. As for the experimental part: The results of acute toxic examination (LD50) which was carried out with the rat through the oral dose of the compound were follows.
Data set [4] concerns skin. Description: Double-blind pinprick procedure pain score at the vein puncture area in patients. The format is in vivo, patient (human). The note with it: ointment c versus ointment b, p<0.05. The method, then: A patient who was to receive an operation.
The sponge was applied over an area in which the vein is punctured in accordance with a double-blind assay method. The area was sealed off with a transparent tape, and the topical reaction and the painless effect occurring on the skin were compared about 1 hour later.
The following pain score was employed as a criterion.
When the pain score was zero, the needle was pierced into the skin about 1.0 mm deep to verify the pain.

With `CCCCCCCCCCCCN1CCCCCC1=O` [Azone, reference compound], the “absorption promoting effect (lidocaine blood concentration)” value in data set [1] (rat, in vivo) is on record as “no major effect of improving absorption was found”.
As to `CC1(C)[C@@H](OC(=O)CCC(=O)O)CC[C@]2(C)[C@H]3C(=O)C=C4[C@@H]5C[C@@](C)(C(=O)O)CC[C@]5(C)CC[C@@]4(C)[C@]3(C)CC[C@@H]12` [Compound 3, Glycyrrhetic acid 3β-monohemisuccinate], in the data set on skin [2], the “time at which effect of the skin anesthesia began” value (“time at which effect” below) was found to be 1.5 h and the “time of complete skin anesthesia” value was 2 h. In data set [3], the LD50 is 520 mg/kg.
For the molecule `CC1(C)[C@@H](OC(=O)c2ccccc2C(=O)O)CC[C@]2(C)[C@H]3C(=O)C=C4[C@@H]5C[C@@](C)(C(=O)O)CC[C@]5(C)CC[C@@]4(C)[C@]3(C)CC[C@@H]12` [Compound 4, Glycyrrhetic acid 3β-monohemiphthalate], the lidocaine blood concentration entry in data set [1] (2% lidocaine ointments (groups 1 and 2), with or without 3% compound 4) is given as “any significant result was not observed”. In addition, the “absorption promoting effect (lidocaine blood concentration)” value in data set [1] (10% lidocaine aqueous gel ointment (groups 3-5), 3% promoter, up to five hours) was “an absorption promoting effect of the compound 4 was acknowledged”. Moreover, in the data set on skin [2], the “time at which effect” value was 1.5 h and the “time of complete skin anesthesia” value is 2 h. The “effect in removing the pain of the skin, in words” value in the data set with skin [4] is reported as “effective in removing the pain of the skin”. Besides, the LD50 in data set [3] worked out at 1320 mg/kg.
With `CC1(C)[C@@H](OC(=O)c2ccccc2C(=O)O)CC[C@]2(C)[C@H]3CC=C4[C@@H]5C[C@@](C)(COC(=O)c6ccccc6C(=O)O)CC[C@]5(C)CC[C@@]4(C)[C@]3(C)CC[C@@H]12` [Compound 5, 18β-olean-12-ene-3 β, 30-diol-3 β, 30-dihemiphthalate], in the data set with skin [2], the “skin anesthesia effect, in words” value is recorded as “skin anesthesia effect substantially equal to that by Azone”. The same molecule had an LD50 in data set [3] of 1260 to 1520 mg/kg.
As for `CC1(C)[C@@H](OC(=O)c2ccccc2C(=O)O)CC[C@]2(C)C3=CC=C4[C@@H]5C[C@@](C)(COC(=O)c6ccccc6C(=O)O)CC[C@]5(C)CC[C@@]4(C)[C@]3(C)CC[C@@H]12` [Compound 6, 18β-olean-9(11), 12-diene-3 β, 30-diol-3 β, 30-dihemiphthalate], in the data set with skin [2], the “skin anesthesia effect, in words” value is given as “skin anesthesia effect substantially equal to that by Azone”. In data set [3], this molecule returned an LD50 of 1280 to 1500 mg/kg.
In the case of `CC1(C)[C@@H](OC(=O)c2ccccc2C(=O)O)CC[C@]2(C)[C@H]3C=CC4=C5C[C@@](C)(COC(=O)c6ccccc6C(=O)O)CC[C@]5(C)CC[C@@]4(C)[C@]3(C)CC[C@@H]12` [Compound 7, Olean-11,13(18)-diene-3 β, 30-diol-3 β, 30-dihemiphthalate], in the data set on skin [2], the “time at which effect” value amounted to 1.5 h and the “time of complete skin anesthesia” value worked out at 2 h. The LD50 in data set [3] was 628 to 793 mg/kg.
